In PubChem BioAssay (NCI):
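Protocol summary: plate cells (96-well), add compound at 5 concentrations, incubate 48 h, interpolate endpoints linearly. Definition used: TGI = concentration required for complete inhibition of growth.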

Columns and labels:
Assay in all cases: NCI anticancer screen, dose series, 48 h
786-0 renal = system: 786-0 renal
A498 renal = system: A498 renal
A549 NSCLC = system: A549 NSCLC
ACHN renal = system: ACHN renal
CAKI-1 renal = system: CAKI-1 renal
CCRF-CEM leukemia = system: CCRF-CEM leukemia
COLO 205 colon = system: COLO 205 colon
DLD-1 colon = system: DLD-1 colon
DMS 114 small cell lung = system: DMS 114 small cell lung
DMS 273 small cell lung = system: DMS 273 small cell lung
EKVX NSCLC = system: EKVX NSCLC
HCC-2998 colon = system: HCC-2998 colon
HCT-116 colon = system: HCT-116 colon
HCT-15 colon = system: HCT-15 colon
HL-60(TB) leukemia = system: HL-60(TB) leukemia
HOP-18 NSCLC = system: HOP-18 NSCLC
HOP-62 NSCLC = system: HOP-62 NSCLC
HOP-92 NSCLC = system: HOP-92 NSCLC
HT29 colon = system: HT29 colon
IGROV1 ovarian = system: IGROV1 ovarian
K-562 leukemia = system: K-562 leukemia
KM12 colon = system: KM12 colon
KM20L2 colon = system: KM20L2 colon
LOX IMVI melanoma = system: LOX IMVI melanoma
LXFL 529 NSCLC = system: LXFL 529 NSCLC
M14 melanoma = system: M14 melanoma
M19-MEL melanoma = system: M19-MEL melanoma
MALME-3M melanoma = system: MALME-3M melanoma
MOLT-4 leukemia = system: MOLT-4 leukemia
NCI-H226 lung = system: NCI-H226 lung
NCI-H23 lung = system: NCI-H23 lung
NCI-H460 lung = system: NCI-H460 lung
NCI-H522 lung = system: NCI-H522 lung
OVCAR-3 ovarian = system: OVCAR-3 ovarian
OVCAR-4 ovarian = system: OVCAR-4 ovarian
OVCAR-5 ovarian = system: OVCAR-5 ovarian
OVCAR-8 ovarian = system: OVCAR-8 ovarian
RXF 393 renal = system: RXF 393 renal
SF-268 CNS = system: SF-268 CNS
SF-295 CNS = system: SF-295 CNS
SF-539 CNS = system: SF-539 CNS
SK-MEL-2 melanoma = system: SK-MEL-2 melanoma
SK-MEL-28 melanoma = system: SK-MEL-28 melanoma
SK-OV-3 ovarian = system: SK-OV-3 ovarian
SN12C renal = system: SN12C renal
SNB-19 CNS = system: SNB-19 CNS
SNB-75 CNS = system: SNB-75 CNS
SR leukemia = system: SR leukemia
SW-620 colon = system: SW-620 colon
TK-10 renal = system: TK-10 renal
U251 CNS = system: U251 CNS
UACC-257 melanoma = system: UACC-257 melanoma
UACC-62 melanoma = system: UACC-62 melanoma
UO-31 renal = system: UO-31 renal
XF 498 CNS = system: XF 498 CNS
RPMI-8226 leukemia = system: RPMI-8226 leukemia
SK-MEL-5 melanoma = system: SK-MEL-5 melanoma
SNB-78 CNS = system: SNB-78 CNS

Measured: TGI

O=c1oc(=O)c2oc3ccccc3oc1=2
not listed: RPMI-8226 leukemia | SK-MEL-5 melanoma | SNB-78 CNS
> 100 µM: all other assays above

OC1C2CCC1C1C3C=CC(C3)C21 (centres undefined)
not listed: A498 renal | HCC-2998 colon | SF-539 CNS | SN12C renal
> 100 µM: all other assays above

O=C(NCC(O)CNC(=O)C(F)(F)F)C(F)(F)F
not listed: ACHN renal | SK-MEL-2 melanoma | SK-MEL-28 melanoma
> 100 µM: all other assays above

CC1OC(OC2C(CO)OC(O[C@H]3CC[C@@]4(C)C(=CC[C@H]5[C@@H]6C[C@@H]7O[C@]8(CC[C@@H](C)CN8)[C@@H](C)[C@@H]7[C@@]6(C)CC[C@@H]54)C3)C(O)C2O)C(O)C(O)C1O (some centres undefined)
not listed: HCC-2998 colon | NCI-H226 lung | SR leukemia
> 100 µM: all other assays above
